From patent publication US8685919B2 (Zealand Pharma A/S, priority 2008, dated 2014)
Entries after “also recorded” stand apart in the source; their conditions may differ. Where two headings read alike, the source gives them in different places. One block for each compound: values may come before it. Peptide text beside a SMILES is read from it.

Columns and labels:
human GLP-1-R = molecular target: T1, human GLP-1-R (Homo sapiens, UniProt P43220); test: GLP-1-receptor efficacy assay (cAMP in HEK293 cells); type: cell-based
T1 construct: expressed in transfected cells
T1 sequence (P43220 24-463): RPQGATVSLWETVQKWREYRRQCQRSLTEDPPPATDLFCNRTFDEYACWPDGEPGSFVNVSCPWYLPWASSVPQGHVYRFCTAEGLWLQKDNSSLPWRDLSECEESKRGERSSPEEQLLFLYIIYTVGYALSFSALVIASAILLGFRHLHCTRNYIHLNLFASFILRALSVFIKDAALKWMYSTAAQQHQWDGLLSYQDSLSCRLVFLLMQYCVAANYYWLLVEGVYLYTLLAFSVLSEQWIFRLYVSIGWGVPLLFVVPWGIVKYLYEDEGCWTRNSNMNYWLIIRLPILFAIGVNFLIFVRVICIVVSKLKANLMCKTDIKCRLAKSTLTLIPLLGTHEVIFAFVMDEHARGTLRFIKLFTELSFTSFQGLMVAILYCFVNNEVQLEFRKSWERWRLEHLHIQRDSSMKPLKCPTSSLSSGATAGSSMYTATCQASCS
Procedure: The 5′-end primers additionally encoded a near Kozak consensus sequence to ensure efficient translation.
48 hr after transfection cells were seeded for limited dilution cloning and selected with 1 mg/ml G418 in the culture medium.
On the day of analysis, growth medium was removed and the cells washed once with 200 μl Tyrode buffer. Cells were incubated in 100 μl Tyrode buffer containing increasing concentrations of test peptides, 100 μM IBMX, and 6 mM glucose for 15 min at 37° C. The reaction was stopped by addition of 25 μl 0.5 M HCl and incubated on ice for 60 min. The cAMP content was estimated using the FlashPlate® cAMP kit from Perkin-Elmer.

[1] = tested on: primary rat adipocyte cultures; type: cell-based
Procedure: Adipocytes were isolated from epididymal fat dissected from normal young adult Sprague-Dawley rats. The fat lumps were minced, incubated and shaken (220 rpm) with collagenase (1 mg/ml) in Krebs-Ringer buffer containing 4% BSA (KRB-BSA) for 60 minutes at 37° C. The suspension was filtered through a nylon filter (160 μm pore size) and the filtrate centrifuged at 200×g for 3 min. The subjacent medium beneath the upper floating layer of adipocytes was removed with a Pasteur-pipette. The adipocytes were washed 3 times in KRB-BSA buffer by re-suspension and centrifugation. The adipocytes were re-suspended in KRB-BSA, mixed, incubated in and shaken with test compounds in 96-deep well plates (50,000 cells/well) in a total volume of 1 ml at 37° C. for 60 min. The plates were placed on ice for at least 10 min after incubation followed by centrifugation at 200×g for 3 min. 300 μl of the buffer beneath the adipocyte layer were collected in a 96-deep well plate. This process was repeated two more times and the 3 extracts collected from each culture pooled together.

db/db mice = test: Oral glucose tolerance test (OGTT) in db/db mice; type: in vivo; details: 45 nmol/kg i.p.
Procedure: Db/db mice were fasted overnight and an initial blood sample (fasting blood glucose level) taken just before administration (i.p.) of vehicle (Acetate buffer, 20 mM acetic acid, 250 mM mannitol, pH 5.0) or the test compound ZP2669 (SEQ ID NO: 4) (45 nmol/kg in acetate buffer). The animals were kept fasted during the experiment to prevent confounding food intake. Fifteen minutes later an oral dose of glucose (1 g/kg in 5 ml/kg) was given and BG levels were measured at t=30 min, t=60 min, t=120 min and t=240 min.
Difference from baseline (t=0) was calculated for each time point and AUC0-240 min values were determined. Statistical analyses of AUC values by one-way ANOVA and Dunnetts post-hoc analyses were performed with GraphPad Prism version 4. Differences were considered significant at the p<0.05 level.

C57BI/6 mice = test: Food intake in normal mice; type: in vivo; details: fasted mice, s.c.; PYY3-36 30 nmol/kg, glucagon 500 nmol/kg, ZP2669 500 nmol/kg
Text: Differences were considered significant at the p<0.05 level.

[2] = tested on: diet induced obese (DIO) mice; test: 28 day treatment of diet induced obese (DIO) mice: body weight gain; type: in vivo
Procedure: Four weeks before drug treatments, C57BI/6 male mice (7 weeks)) (N=10-12 animals in each group) were put on high fat diet (HFD) and their day-night cycle reversed with lights On/Off at 2000/0800 hour. Experimental animals were conditioned to treatment by daily injections (s.c.) of 0.1 ml vehicle and acclimatized to handling by weighing them twice a week one week before start of drug administrations. The day before start of experiment, mice were stratified into groups with similar body weight (BW) and the next day groups of stratified mice were treated (b.i.d.; s.c.) with ZP2669 (SEQ ID NO: 4) (500 nmol/kg) or vehicle (Acetate-buffer). ZP2669 (SEQ ID NO: 4) was given in isotonic acetate buffer (pH 4.8; 2.5 μl/g BW). […] Body weights were recorded daily and used to administer the body weight-corrected doses of peptide throughout the study. […] Blood plasma samples were stored at −80° C. until analyzed for cholesterol, HDL and LDL using commercially available kits. Body weight gains throughout the treatment period were calculated for each animal by subtracting its weight at the initiation of treatment.
The effects of treatment on body weight gain and cholesterols were assessed by 2-way ANOVA with repeated measures and Bonferoni post-hoc analyses, using GraphPad Prism version 4. […]

[3] = tested on: diet induced obese (DIO) mice; test: 28 day treatment of DIO mice: plasma cholesterols (cholesterol, HDL, LDL); type: in vivo; details: DIO mice treated 4 weeks b.i.d., compared to vehicle
Procedure: Four weeks before drug treatments, C57BI/6 male mice (7 weeks)) (N=10-12 animals in each group) were put on high fat diet (HFD) and their day-night cycle reversed with lights On/Off at 2000/0800 hour. Experimental animals were conditioned to treatment by daily injections (s.c.) of 0.1 ml vehicle and acclimatized to handling by weighing them twice a week one week before start of drug administrations. […] A non-obese control group maintained on regular chow was treated with vehicle in the same treatment regime as the DIO groups. Body weights were recorded daily and used to administer the body weight-corrected doses of peptide throughout the study. Animals were fasted overnight before sacrifice. An eye blood sample (0.6 ml EDTA) was obtained the following morning immediately before cervical dislocation. Blood plasma samples were stored at −80° C. until analyzed for cholesterol, HDL and LDL using commercially available kits. Body weight gains throughout the treatment period were calculated for each animal by subtracting its weight at the initiation of treatment.
The effects of treatment on body weight gain and cholesterols were assessed by 2-way ANOVA with repeated measures and Bonferoni post-hoc analyses, using GraphPad Prism version 4. Differences were considered significant at the p<0.05 level.

EC50 (human GLP-1-R; read-out: GLP-1R EC50 (nM), crude peptides marked *): 21 nM
Compound: CC(C)C[C@H](NC(=O)[C@H](CC(C)C)NC(=O)[C@H](Cc1c[nH]c2ccccc12)NC(=O)[C@H](CCC(N)=O)NC(=O)[C@@H](NC(=O)[C@H](Cc1ccccc1)NC(=O)[C@H](CC(=O)O)NC(=O)[C@H](Cc1c[nH]cn1)NC(=O)[C@H](C)NC(=O)[C@H](C)NC(=O)[C@H](CCCCN)NC(=O)[C@H](CO)NC(=O)[C@H](CC(=O)O)NC(=O)[C@H](CC(C)C)NC(=O)[C@H](Cc1ccc(O)cc1)NC(=O)[C@H](CCCCN)NC(=O)[C@H](CO)NC(=O)[C@H](Cc1ccc(O)cc1)NC(=O)[C@H](CC(=O)O)NC(=O)[C@H](CO)NC(=O)[C@@H](NC(=O)[C@H](Cc1ccccc1)NC(=O)[C@@H](NC(=O)CNC(=O)[C@H](CCC(N)=O)NC(=O)[C@H](CO)NC(=O)[C@@H](N)Cc1c[nH]cn1)[C@@H](C)O)[C@@H](C)O)C(C)C)C(=O)N[C@@H](CCCNC(=N)N)C(=O)N[C@@H](C)C(N)=O [Compound L006-0172] (H-HSQGTFTSDYSKYLDSKAAHDFVQWLLRA-NH2)

EC50 [1]: 0.75 nM
Compound: CSCC[C@H](NC(=O)[C@H](CC(C)C)NC(=O)[C@H](Cc1c[nH]c2ccccc12)NC(=O)[C@H](CCC(N)=O)NC(=O)[C@@H](NC(=O)[C@H](Cc1ccccc1)NC(=O)[C@H](CC(=O)O)NC(=O)[C@H](CCC(N)=O)NC(=O)[C@H](C)NC(=O)[C@H](C)NC(=O)[C@H](CCCCN)NC(=O)[C@H](CO)NC(=O)[C@H](CC(=O)O)NC(=O)[C@H](CC(C)C)NC(=O)[C@H](Cc1ccc(O)cc1)NC(=O)[C@H](CCCCN)NC(=O)[C@H](CO)NC(=O)[C@H](Cc1ccc(O)cc1)NC(=O)[C@H](CC(=O)O)NC(=O)[C@H](CO)NC(=O)[C@@H](NC(=O)[C@H](Cc1ccccc1)NC(=O)[C@@H](NC(=O)CNC(=O)[C@H](CCC(N)=O)NC(=O)[C@H](CO)NC(=O)[C@@H](N)Cc1c[nH]cn1)[C@@H](C)O)[C@@H](C)O)C(C)C)C(=O)N[C@@H](CC(N)=O)C(=O)N[C@H](C(N)=O)[C@@H](C)O [ZP2667] (H-HSQGTFTSDYSKYLDSKAAQDFVQWLMNT-NH2)
Lipolysis potency relative to OXM ([1]; primary adipocyte cultures): 240 times
Lipolysis potency relative to glucagon ([1]; primary adipocyte cultures): 8 times

EC50 [1]: 101 nM
EC50 (human GLP-1-R; HEK293 cells expressing human GLP-1-R, cAMP, 15 min at 37° C., read-out: GLP-1R EC50): 0.08 nM
Compound: CC(C)C[C@H](NC(=O)[C@H](CCCCN)NC(=O)[C@H](CC(C)C)NC(=O)[C@H](Cc1c[nH]c2ccccc12)NC(=O)[C@H](CCCNC(=N)N)NC(=O)[C@@H](NC(=O)[C@H](Cc1ccccc1)NC(=O)[C@H](CC(=O)O)NC(=O)[C@H](CCCNC(=N)N)NC(=O)[C@H](C)NC(=O)[C@H](C)NC(=O)[C@H](CCCCN)NC(=O)[C@H](CO)NC(=O)[C@H](CC(=O)O)NC(=O)[C@H](CC(C)C)NC(=O)[C@H](Cc1ccc(O)cc1)NC(=O)[C@H](CCCCN)NC(=O)[C@H](CO)NC(=O)[C@H](Cc1ccc(O)cc1)NC(=O)[C@H](CC(=O)O)NC(=O)[C@H](CO)NC(=O)[C@@H](NC(=O)[C@H](Cc1ccccc1)NC(=O)[C@@H](NC(=O)CNC(=O)[C@H](CCC(N)=O)NC(=O)[C@H](CO)NC(=O)[C@@H](N)Cc1c[nH]cn1)[C@@H](C)O)[C@@H](C)O)C(C)C)C(=O)N[C@@H](C)C(N)=O [ZP2668] (H-HSQGTFTSDYSKYLDSKAARDFVRWLKLA-NH2)
Lipolysis potency relative to OXM ([1]; primary adipocyte cultures): in the same order of magnitude as OXM

EC50 [1]: 4.6 nM
Compound: CC(C)C[C@H](NC(=O)[C@H](CC(C)C)NC(=O)[C@H](Cc1c[nH]c2ccccc12)NC(=O)[C@H](CCC(=O)O)NC(=O)[C@@H](NC(=O)[C@H](Cc1ccccc1)NC(=O)[C@H](CC(=O)O)NC(=O)[C@H](Cc1c[nH]cn1)NC(=O)[C@H](C)NC(=O)[C@H](C)NC(=O)[C@H](CCCCN)NC(=O)[C@H](CO)NC(=O)[C@H](CC(=O)O)NC(=O)[C@H](CC(C)C)NC(=O)[C@H](Cc1ccc(O)cc1)NC(=O)[C@H](CCCCN)NC(=O)[C@H](CO)NC(=O)[C@H](Cc1ccc(O)cc1)NC(=O)[C@H](CC(=O)O)NC(=O)[C@H](CO)NC(=O)[C@@H](NC(=O)[C@H](Cc1ccccc1)NC(=O)[C@@H](NC(=O)CNC(=O)[C@H](CCC(N)=O)NC(=O)[C@H](CO)NC(=O)[C@@H](N)Cc1c[nH]cn1)[C@@H](C)O)[C@@H](C)O)C(C)C)C(=O)N[C@@H](CCCNC(=N)N)C(=O)N[C@@H](C)C(N)=O [ZP2669] (H-HSQGTFTSDYSKYLDSKAAHDFVEWLLRA-NH2)
Improvement of glucose tolerance (db/db mice; 15 min before oral glucose 1 g/kg, AUC0-240 min): 77.1%
Effect on oral glucose tolerance (db/db mice; diabetic db/db mice, result in words): significantly (P<0.01) improved glucose tolerance
Lipolysis potency relative to OXM ([1]; primary adipocyte cultures): 40 times
Lipolysis potency relative to glucagon ([1]; primary adipocyte cultures): equipotent with glucagon
Effect on food intake during the first hour (C57BI/6 mice): significantly (P<0.05) decreased food intake
Effect on body weight gain ([2]; 500 nmol/kg b.i.d. s.c., 28 days, high fat diet): decreased body weight gain to a level similar to that observed with chow feeding
Effect on fat deposition ([2]; 4 weeks treatment of DIO mice): significantly decreased fat deposition
Effect on HDL/LDL ratios [3]: significant compared to vehicle; also recorded: significant effect
Effect on blood concentration of LDL cholesterol [3]: significant compared to vehicle; also recorded: significant effect

Compound: Exendin-4 [reference compound]
Effect on lipolysis ([1]; primary adipocyte cultures, result in words): no effect
Stimulation of lipolysis EC50 (nM) ([1]; primary rat adipocyte cultures, 60 min at 37° C.): No effect
GLP-1R agonism (human GLP-1-R; result in words): very potent GLP-1R agonist

Compound: PYY(3-36): internal positive control in the food intake test, anorectic effect [reference compound]
Effect on food intake during the first hour (C57BI/6 mice): showed an anorectic effect
